Data taken from PMC7047428 (ACS Central Science, 2020).

Columns and labels:
D2R WT [1] = target: T1, D2R WT (Homo sapiens, UniProt P14416); test: Split luciferase GloSensor cAMP assay, activation of Gi protein; format: cell-based; conditions: for G protein EC50: wild type D2R, HEK 293T, cAMP GloSensor
D2R WT [2] = target: T1, D2R WT; test: Tango arrestin recruitment assay; format: cell-based; conditions: wild type D2R, HTLA cells

T1 sequence (P14416 whole entry): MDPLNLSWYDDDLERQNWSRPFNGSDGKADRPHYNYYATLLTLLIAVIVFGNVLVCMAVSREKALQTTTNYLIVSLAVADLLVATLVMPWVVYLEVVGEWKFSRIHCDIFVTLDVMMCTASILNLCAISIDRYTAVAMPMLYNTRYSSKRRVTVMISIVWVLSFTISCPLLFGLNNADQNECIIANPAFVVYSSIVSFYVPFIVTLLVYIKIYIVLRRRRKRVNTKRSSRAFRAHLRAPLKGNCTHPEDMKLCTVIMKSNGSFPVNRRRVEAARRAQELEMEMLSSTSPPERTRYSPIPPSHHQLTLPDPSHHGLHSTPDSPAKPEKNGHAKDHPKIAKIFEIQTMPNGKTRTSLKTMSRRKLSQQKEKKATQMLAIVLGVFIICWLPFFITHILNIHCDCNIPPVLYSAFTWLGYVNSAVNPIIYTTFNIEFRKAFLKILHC

Row | EC50 (D2R WT [1]) [nM] | β-arrestin EC50 (D2R WT [2]) | G protein EC50 (D2R WT [1]) | SMILES
1 | 95 | – | – | Oc1c(CN2CCN(c3ccccn3)CC2)ccc2cccnc12 [MLS-d2, 7-((4-(Pyridin-2-yl)piperazin-1-yl)methyl)quinolin-8-ol]
2 | 18.6 | – | – | Oc1c(CN2CCN(c3ccccn3)CC2)cc(F)c2cccnc12 [MLS-d1, 5-Fluoro-7-((4-(pyridin-2-yl)piperazin-1-yl)methyl)quinolin-8-ol]
3 | – | completely inactive | completely inactive | Oc1c(CN2CCN(c3ccccn3)CC2)cc(Br)c2cccnc12 [MLS-d3, 5-Bromo-7-((4-(pyridin-2-yl)piperazin-1-yl)methyl)quinolin-8-ol]
4 | – | did not show activation | did not show activation | O=[N+]([O-])c1cc(CN2CCN(c3ccccn3)CC2)c(O)c2ncccc12 [MLS-d4, 5-Nitro-7-((4-(pyridin-2-yl)piperazin-1-yl)methyl)quinolin-8-ol]
